13 molecules from US9328093B2, “Selective inhibitors of ubiquitin specific protease 7, the pharmaceutical compositions thereof and their therapeutic applications” (HYBRIGENICS SA, priority 2010, dated 2016) can be followed below.

For assay [1], the system named is HCT116 colon cancer cells. Description: HCT116 cell viability and proliferation assay (MTS). Type of assay: cell-based. As to conditions: Homo sapiens, HCT-116, 72 h, HCT116, 72 hours, read-out: Cell viability (MTS): HCT116 GI50 Day3. How it is done: HCT116 colon cancer cells were obtained from ATCC (American Type Culture Collection), and maintained in Mc Coy's 5A medium containing 10% FBS, 3 mM glutamine and 1% penicillin/streptomycin. Cells were incubated at 37° C. in a humidified atmosphere containing 5% CO2.
Cell viability was assayed using the MTS technique in 96-well culture plates (CellTiter 96® Aqueous Non-Radioactive Cell Proliferation Assay, Promega) according to the manufacturer's instructions. MTS (3-(4,5-dimethyl-thiazol-2-yl)-5-(3-carboxy-methoxyphenyl)-2-(4-sulfophenyl)-2H-tetra-zolium) is a MTT-derived tetrazolium that is reduced in metabolically active cells into a soluble, cell-permeant formazan. The amount of formazan, detected by its absorbance at 492 nm is proportional to the number of living, metabolically active cells.
10^3 HCT116 cells were seeded per well. 24 hours later, the medium was changed and the cells treated in triplicate with the concentrations of each compound from 100 μM to 50 nM. The compounds were diluted in 100% DMSO, whose final concentration on cells was kept at 0.5%.
Cells were incubated with the compounds for 72 hours, and their viability then assayed by the addition of MTS for 2 hours. Absorbance at 492 nm was measured directly from the 96-well culture plates. Gl50 (Growth Inhibition 50) concentrations for each compound were calculated using a sigmoidal variable slope fit (Prism 4.0, Graphpad Softwares). Values represent mean of three independent experiments.

The target of another assay is T1, USP7 (Homo sapiens, UniProt Q93009).
T1 construct: Full-length wild-type human USP7 and its catalytic mutant (cysteine 223 replaced by alanine, C223A) were produced as N-terminally His-tagged fusions; His (N); made in house; host or cells: Spodoptera frugiperda Sf9 (or High Five) insect cells, baculovirus pFastBac-HT-B
Description: USP7 assay with GST-Ub52-Flag substrate (HTRF). Type of assay: biochemical. As to conditions: USP7 200 pM. As to the method: (§1) For compounds 26 to 38, the in-vitro assays on USP7 and USP8 were carried out according to the following procedure
(§2) The present examples 26 to 38 makes it possible to validate the use of GST-Ub52-Flag in an assay based on the time-resolved measurement of fluorescence emitted by […] in homogenous medium.
(§3) The assay is carried out on multiwell assay plates. The plates are analyzed on a PHERAstar fluorimeter (BMG) after an overnight incubation at 4° C. (excitation 337 nm, emission 620 and 665 nm).
(§4) The reagents used were as follows: • Solution of USP7 at 200 pM and USP8 at 400 pM in 50 mM Tris HCl pH 7.6, Bovine Serum Albumin 0.05%, DTT 5 mM. • Anti-Flag-K (CIS bio international), solution at 0.2 μM in 0.8 M KF, 0.1 Bovine Serum Albumin, Tris HCl 25 mM pH 7.6. • Anti-GST antibody-XL665 conjugate (CIS bio international), solution at 2.6 μM in 0.8 M KF, 0.1% Bovine Serum Albumin, Tris HCl 25 mM pH 7.6. • GST-Ub52-flag solution at 14.75 μM & MBP_Ub52 at 37.7 μM are prepared by dilutions from the stock solution described above in 50 mM Tris HCl pH 7.6, EDTA 0.5 mM, Bovine Serum Albumin 0.05%, DTT 5 mM.
(§5) The enzyme reaction is carried out by mixing GST-Ub52-flag solution with 5 μl of USP7 solution (200 pM final) or 5 μl of USP8 (400 pM final). This mixture is incubated for one hour at room temperature on a multiwell assay plate. A 10 μl mixture of 5 μl of anti-Flag-K solution (0.2 μM) plus 5 μl of anti-GST-XL665 antibody (2.6 μM) is added to each well of the multiwell assay plate. The plate is read after an overnight incubation at 4° C. on a PHERAstar fluorimeter (BMG).
(§6) The decrease in the signal correlates with the increase in enzyme activity i.e. the cleavage of GST-Ub52-Flag substrate. The format used is therefore entirely suitable for a method of assaying an enzyme of the deubiquitinating type such as ubiquitin specific protease, but also for determining a modulator of this enzyme activity.
(§7) The same procedures as mentioned above for assaying the activity of enzymes of the deubiquitinating type are carried out but the various reaction mixtures are incubated with identical enzyme concentration, in the presence or absence of a test compounds 26 to 38. Data (mean values+/− standard deviation) were analyzed as % of control (no compound) and plotted as percentage versus the Log of the compound concentration using GraphPad (Prism).

For a further assay, the target named is T2, USP8 (Homo sapiens, UniProt P40818).
T2 construct: His (from pFastBac-HT vector) (N); made in house; host or cells: Sf9 or High Five insect cells, baculovirus
T2 sequence (P40818 1-1118): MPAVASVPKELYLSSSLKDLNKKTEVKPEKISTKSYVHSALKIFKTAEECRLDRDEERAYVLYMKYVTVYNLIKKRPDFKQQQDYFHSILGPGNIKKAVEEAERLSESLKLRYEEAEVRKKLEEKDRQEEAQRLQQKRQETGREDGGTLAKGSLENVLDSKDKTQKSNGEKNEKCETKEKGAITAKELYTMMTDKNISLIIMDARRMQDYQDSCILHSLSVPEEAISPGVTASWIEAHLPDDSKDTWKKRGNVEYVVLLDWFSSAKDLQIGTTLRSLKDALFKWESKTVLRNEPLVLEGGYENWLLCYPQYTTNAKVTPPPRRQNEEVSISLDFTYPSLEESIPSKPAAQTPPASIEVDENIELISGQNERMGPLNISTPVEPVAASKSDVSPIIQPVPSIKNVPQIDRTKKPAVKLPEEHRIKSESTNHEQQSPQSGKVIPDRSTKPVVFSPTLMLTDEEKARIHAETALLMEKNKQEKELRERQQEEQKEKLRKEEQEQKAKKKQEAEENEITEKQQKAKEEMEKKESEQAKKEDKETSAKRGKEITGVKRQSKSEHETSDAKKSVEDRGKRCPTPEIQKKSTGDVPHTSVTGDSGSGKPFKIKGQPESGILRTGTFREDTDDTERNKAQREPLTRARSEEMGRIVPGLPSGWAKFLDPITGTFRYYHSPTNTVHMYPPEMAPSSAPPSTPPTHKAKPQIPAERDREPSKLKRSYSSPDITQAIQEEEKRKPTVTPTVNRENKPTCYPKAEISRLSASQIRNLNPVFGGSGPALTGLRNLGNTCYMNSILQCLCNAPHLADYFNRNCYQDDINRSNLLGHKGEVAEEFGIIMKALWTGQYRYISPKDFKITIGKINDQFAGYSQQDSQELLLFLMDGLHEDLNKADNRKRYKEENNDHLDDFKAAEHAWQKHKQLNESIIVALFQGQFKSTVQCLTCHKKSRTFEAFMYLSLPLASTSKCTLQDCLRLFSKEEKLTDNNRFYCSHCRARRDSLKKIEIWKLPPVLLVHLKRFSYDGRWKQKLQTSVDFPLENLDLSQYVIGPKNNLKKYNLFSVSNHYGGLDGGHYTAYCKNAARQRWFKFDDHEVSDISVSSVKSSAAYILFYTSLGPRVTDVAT
Nature of the assay: USP8 assay with GST-Ub52-Flag substrate (HTRF). As to conditions: USP8 400 pM. Type of assay: biochemical. As to the method:
as §1, §2, §3, §4, §5, §6, §7

Each structure is given as a SMILES string.

For `O=C(NCCN1CCCCCC1)c1ccc2c(Cl)c3c(nc2c1)CCCC3` [Example 27, N-(2-(azepan-1-yl)ethyl)-9-chloro-5,6,7,8-tetrahydroacridine-3-carboxamide], in assay [1], the GI50 worked out at 10 µM. Besides, the IC50 against USP7 is 15.4 µM; against USP8, > 200 µM.
On the same counts, the results for `O=C(NCCN1CCCCC1)c1ccc2c(Cl)c3c(nc2c1)CCCC3` [Example 28, 9-chloro-N-(2-(piperidin-1-yl)ethyl)-5,6,7,8-tetrahydroacridine-3-carboxamide] are 8.8 µM, 11.9 µM and > 200 µM.
On the same counts, the results for `CN1CCC(CN2CCN(C(=O)c3ccc4c(Cl)c5c(nc4c3)CCCC5)CC2)CC1` [Example 29, (9-chloro-5,6,7,8-tetrahydroacridine-3-yl)(4-((1-methylpiperidin-4-yl)methyl)piperazin-1-yl)methanone] are 7.3 µM, 8.5 µM and > 200 µM.
In the same order, the values of `CN1CCC(N2CCN(C(=O)c3ccc4c(Cl)c5c(nc4c3)CCCC5)CC2)CC1` [Example 30, (9-chloro-5.6,7,8-tetrahydroacridine-3-yl)(4-(1-methylpiperidin-4-yl)piperazin-1-yl)methanone] are 12.5 µM, 23 µM and > 200 µM.
As to `O=C(c1ccc2c(Cl)c3c(nc2c1)CCCC3)N1CCCCC1` [Example 31, (9-chloro-5,6,7,8-tetrahydroacridine-3-yl)(piperidin-1-yl)methanone], the GI50 in assay [1] stood at 11.4 µM. The IC50 against USP7 was 24.5 µM; at USP8, > 200 µM.
On the same counts, the results for `O=C(NCC1CCN(Cc2ccccc2)CC1)c1ccc2c(Cl)c3c(nc2c1)CCCC3` [Example 32, N-((1-benzylpiperidin-4-yl)methyl)-9--chloro-5,6,7,8-tetrahydroacridine-3-carboxamide] are 3.1 µM, 17.6 µM and > 200 µM.
In the same order, the values of `O=C(NCC1CCN(CCCc2ccccc2)CC1)c1ccc2c(Cl)c3c(nc2c1)CCCC3` [Example 33, 9-chloro-N-((1-(3-phenylpropyl)piperidin-4-yl)methyl)-5,6,7,8-tetrahydroacridine-3-carboxamide] are 2 µM, 16.4 µM and > 200 µM.
In the same order, the values of `O=C(NCC1CCN(CCc2ccccc2)CC1)c1ccc2c(Cl)c3c(nc2c1)CCCC3` [Example 34, 9-chloro-N-((1-phenethylpiperidin-4-yl)methyl)-5,6,7,8-tetrahydroacridine-3-carboxamide] are 2.8 µM, 24.5 µM and > 200 µM.
Turning to `CCN(CC)CCCC(C)NC(=O)c1ccc2c(Cl)c3c(nc2c1)CCCC3` (stereo not drawn) [Example 35, 9-chloro-N-(5-(diethylamino)pentan-2-yl)-5,6,7,8-tetrahydroacridine-3-carboxamide], in assay [1], the GI50 amounted to 8.2 µM. The figures for the IC50 on USP7 and on USP8 were 36.9 µM and > 200 µM, respectively.
In the same order, the values of `CCN1CCC[C@@H]1CNC(=O)c1ccc2c(Cl)c3c(nc2c1)CCCC3` [Example 36, (R)-9-chloro-N-((1-ethylpyrrolidin-2-yl)methyl)-5,6,7,8-tetrahydroacridine-3-carboxamide] are 9.1 µM, 44.4 µM and > 200 µM.
On the same counts, the results for `CCN1CCC[C@H]1CNC(=O)c1ccc2c(Cl)c3c(nc2c1)CCCC3` [Example 37, (S)-9-chloro-N-((1-ethylpyrrolidin-2-yl)methyl)-5,6,7,8-tetrahydroacridine-3-carboxamide] are 8.7 µM, 25.9 µM and > 200 µM.
In the same order, the values of `CN(C)CC(C)(C)CNC(=O)c1ccc2c(Cl)c3c(nc2c1)CCCC3` [Example 38, 9-chloro-N-(3-(dimethylamino)-2,2-dimethylpropyl)-5,6,7,8-tetrahydroacridine-3-carboxamide] are 11 µM, 49.2 µM and > 200 µM.
`O=C(NCCCN1CCc2ccccc2C1)c1ccc2c(Cl)c3c(nc2c1)CCCC3` [Example 39, 9-chloro-N-(3-(3,4-dihydroisoquinolin-2(1H)-yl)propyl)-5,6,7,8-tetrahydroacridine-3-carboxamide]: the concentration for 50% growth inhibition (GI50) in assay [1] worked out at 7.6 µM. Further, the figures for the half-maximal inhibitory concentration (IC50) on USP7 and against USP8 were 38.5 µM and > 200 µM, respectively.
